The results in this text go back to the METLIN SMRT retention time set (Domingo-Almenara et al. 2019).

The structures appear in SMILES notation.

The data set can be described thus: gradient 5% acetonitrile 3 min, to 50% in 2 min, to 85% in 15 min, held 3 min, 100 µL/min. The conditions noted are these: column: Zorbax Extend-C18 2.1 x 50 mm; eluents: water / acetonitrile, 0.1% formic acid. The method, boiled down: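 Over 3 months, pure standards in mixtures of ~100 molecules were run by HPLC coupled to a quadrupole time-of-flight mass spectrometer in positive and negative ionization mode. The column was a Zorbax Extend-C18 (2.1 × 50 mm, 1.8 μm) at 100 μL/min, eluted with water and acetonitrile each holding 0.1% formic acid, with 40 μL dead and 900 μL dwell volumes. Retention time was determined from adduct peaks chosen by software and checked manually.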
`O=C(CN1CCN(C(=O)Nc2ccc(Br)cc2)CC1=O)Nc1ccc(F)cc1F` yielded an RP-LC retention time of 1020 s.
On to `Cc1ccc(C)c(NC(=O)NCCn2nnc3cc(C(=O)N(C)C)ccc32)c1`, for which the RP-LC retention time worked out at 664 s.
As to `Cc1ccc(N2CCC(NC(=O)C3CCCCC3)C2=O)cc1` (stereo not given), the RP-LC retention time worked out at 520 s.
In the case of `O=C(Cn1cnc2nc(N3CCCC(C(=O)NC4CC4)C3)sc2c1=O)Nc1ccccc1` (stereo not given), the RP-LC retention time was found to be 663 s.
The result for `CC(=O)N1CCCN(C(=O)c2ccc(C#N)cc2)CC1` reads 589 s; that for `CC(COc1ccccc1Cc1ccccc1)N1CCCCC1` (stereo not given), 852 s.
To `CN(CCNC(=O)c1cccc(N2CCNC(c3ccccc3)C2)n1)C1CCCCC1` (stereo not given) belongs 573 s.
The result for `CC(C)n1nccc1-c1nnc(NC(=O)C(C)(C)Oc2ccc(Cl)cc2)o1` reads 903 s; that for `Cn1cc(-c2ccncc2)cc1C(=O)N1CCC2(CC1)OCCO2`, 562 s.
For the compound `O=C(NCC1CCCO1)c1csc(N2CCN(c3cccc(Cl)c3)CC2)n1` (stereo not given), the RP-LC retention time was found to be 703 s.
The result for `CCOc1cc(CNc2ccc3[nH]c(=O)[nH]c3c2)cc(Br)c1OC` reads 677 s; that for `CC(C)Cc1ccc(S(=O)(=O)N2CCCC2c2nc(-c3ccc(F)cc3)no2)cc1` (stereo not given), 1360 s.
The result for `CC(C)NC(=O)C1CCCN(c2nc3ncn(CC(=O)Nc4ccc(Cl)cc4)c(=O)c3s2)C1` (stereo not given) reads 719 s; that for `CCc1nc(-c2csc(S(=O)(=O)N3CCCC(C(=O)Nc4cccc(Cl)c4)C3)c2)no1` (stereo not given), 1040 s; that for `CC1=C(c2ccc(C)cc2)S(=O)(=O)N=C1N1CCCN(C(=O)C2CCCC2)CC1`, 872 s.
`CC1Sc2ccc(S(=O)(=O)N3CCC(C(=O)N4CCc5ccccc5C4)CC3)cc2NC1=O` (stereo not given) gave an RP-LC retention time of 882 s.
The compound `COc1ccc(CNC(=O)C2CCN(S(C)(=O)=O)c3cc(C)ccc3O2)cc1` (stereo not given) gave an RP-LC retention time of 830 s.
The result for `COc1cccc(N2C(=O)NC3CC2(C)Oc2ccc(OC)cc23)c1` (stereo not given) reads 787 s; that for `Cc1nc(-c2cn(C)c3ncccc23)sc1C(=O)Nc1ccc(F)cc1`, 1130 s.
The result for `CCSc1nnc(NC(=O)Cn2nc(-n3cccn3)ccc2=O)s1` reads 653 s; that for `CCc1ccccc1NC(=O)Cn1nc2cc(C)nc(-c3ccccc3)n2c1=O`, 854 s.
Regarding `CCn1nnc2cc(-c3noc(-c4cc(OC)c(OC)c(OC)c4)n3)ccc21`, the RP-LC retention time was determined as 993 s.
The result for `CCc1nnc(-c2ccc(NC(=O)CCc3ccc(OC)cc3)cc2)o1` reads 795 s; that for `Cc1ccc(C)c(N2CCN(C(=O)c3csc(C(=O)NC4CC4)n3)CC2)c1`, 968 s; that for `CC(C)(C)c1noc(-c2ccnc(-n3cnc(C(=O)NCc4ccccc4)c3)c2)n1`, 715 s.
To `Cc1nc(OCC(=O)Nc2cccc(C(F)(F)F)c2)c2ccccc2n1` belongs 817 s; to `CCN(CC)CCNC(C(=O)OCCC(C)C)c1ccccc1` (stereo not given), 817 s.
To `O=c1ccc(-c2ccc(Cl)cc2)nn1CCc1nc(-c2cccs2)no1` belongs 1000 s; to `CCCS(=O)(=O)N1C[C@@H](COC)[C@H](c2ccccn2)C1`, 619 s; to `COc1cccc(C(=O)N2CCC3(CC2)c2nccn2-c2ccccc2CN3C)c1`, 612 s.
For the compound `O=C(NC1CC1)C1(c2ccc(F)cc2)CC1`, the RP-LC retention time turned out to be 779 s.
For `Nc1nc(Nc2ccccc2F)nc2ccccc12`, the RP-LC retention time stood at 600 s.
To `CCOc1ccccc1C(=O)NC1CCN(c2cc(-c3ccccc3)[nH]n2)C1` (stereo not given) belongs 684 s.
`Cc1ccc(-c2nc(-c3ccc(-c4noc(CNC(=O)Cc5ccccc5)n4)cc3)cs2)s1` came in with an RP-LC retention time of 1200 s.
For the compound `Cc1cccc(Oc2nccnc2N2CCC(C(=O)NC(C)c3ccccc3)CC2)c1` (stereo not given), the RP-LC retention time worked out at 1020 s.
Compound `c1ccc(-c2cc(NCc3ccccn3)n3ncc(-c4ccccc4)c3n2)cc1` had an RP-LC retention time of 1180 s.
To `COc1ccc(S(=O)(=O)N2CCCC(C)(C(=O)NCc3cccc(OC)c3)C2)cc1` (stereo not given) belongs 903 s; to `CC(=O)n1nc(-c2ccccc2Cl)nc1N`, 729 s; to `COc1ccccc1-c1nnc(-c2cccc(S(=O)(=O)N3CCCC3)c2)o1`, 885 s.
Take `CCc1cc(=O)n(CC(=O)Nc2cc(OC)cc(OC)c2)c(N2CCOCC2)n1`: the RP-LC retention time came out at 738 s.
`Cc1ccc(C)c(NC(=O)Cn2cccc2-c2nc(-c3ccc4c(c3)OCO4)no2)c1` had an RP-LC retention time of 1050 s.
For the compound `Cc1noc2nc(C)n(CC(=O)NCc3ccc(Cl)cc3)c(=O)c12`, the RP-LC retention time was found to be 783 s.
The result for `O=C(c1ccco1)N1CCC2(CC1)NC(=O)N(Cc1ccc(F)cc1)C2=O` reads 692 s; that for `CCc1ccc(OCC(=O)Nc2cnn(CC)c(=O)c2N2CCCCC2)cc1`, 1240 s; that for `COc1cccc2nc3cc(C)c(C)cc3nc12`, 868 s.
To `O=C(NC1CCCCC1)C(c1ccc(Cl)cc1)N1CCN(C(=O)c2ccco2)CC1` (stereo not given) belongs 773 s; to `CC(C)OCCCNC(=O)C(C)n1c2ccccc2c2cnn(C)c(=O)c21` (stereo not given), 803 s.
Consider `Cc1ccc(-c2nc(C)cc3nn(CC(=O)Nc4cccc(Br)c4)c(=O)n23)cc1`, for which the RP-LC retention time came out at 953 s.
To `O=C(NCc1ccc(Cl)cc1)c1ccc(NC(=O)C2CC2)cc1N1CCOCC1` belongs 843 s; to `CN1CCN(CCCNC(=O)c2nccnc2NC(=O)c2ccccc2)CC1`, 557 s; to `COc1ccc(N2C(=O)C3N=NN(Cc4nc(-c5ccccc5)no4)C3C2=O)cc1` (stereo not given), 912 s.
The result for `CCN1CCn2cc(S(=O)(=O)Nc3cc(F)cc(F)c3)cc2C1=O` reads 755 s; that for `CCOC(=O)CCNC(=O)N1CCOc2ccc(N(C)C)cc2C1`, 583 s.
The result for `CCOC(=O)c1nc(N(Cc2cccs2)C2CCCC2)c2ccccc2n1` reads 1120 s; that for `CC1CCCN(C(=O)CN(C)S(=O)(=O)c2ccc3c(c2)CCCC(=O)N3)C1` (stereo not given), 718 s.
On to `O=C(Cn1c(=O)c2cccn2c2ccccc21)NCCCN1CCCCC1`, for which the RP-LC retention time worked out at 595 s.
For `Cn1c(N2CCCC(C(=O)NCCCN3CCN(c4ccccc4)CC3)C2)cc(=O)n(C)c1=O` (stereo not given), the RP-LC retention time was 600 s.
Compound `CCC(=O)N(C1CCOCC1)C1CCN(S(=O)(=O)c2ccc(OC)cc2)CC1` showed an RP-LC retention time of 800 s.
The compound `O=C(NCc1cccs1)C1CN(C(=O)c2cccs2)CC12CCCCC2` (stereo not given) registered an RP-LC retention time of 856 s.
For the compound `CCCCOc1ccccc1C1NC(=O)NC(C)=C1C(=O)OCc1ccco1` (stereo not given), the RP-LC retention time came to 938 s.
To `O=C(NC1CCN(c2cc(-c3cccs3)[nH]n2)C1)c1ccc2[nH]ccc2c1` (stereo not given) belongs 672 s; to `COc1ccc(Cl)cc1NC(=O)Cn1ccc2c(=O)n(C)c(=O)n(C)c21`, 722 s; to `CCCN1C(=O)COc2ccc(-c3csc(NC(=O)CCc4ccccc4)n3)cc21`, 1070 s.
As to `Cc1ccc(Oc2nccnc2SCC(=O)NCCC2=CCCCC2)cc1`, the RP-LC retention time was 1090 s.
The result for `COc1ccc(N2CCN(C(=O)c3ccc(=O)n(CCN4CCCC4)c3)CC2)cc1` reads 586 s; that for `Cc1ccc(CNC2=NCCNC23CCN(S(=O)(=O)c2ccc(F)cc2)CC3)cc1`, 733 s; that for `Cc1nc(-c2ccc(-c3noc(-c4cncc(Br)c4)n3)cc2)cs1`, 1250 s.
Turning to `CCN1C(=O)c2ccccc2Oc2ccc(C(=O)NC(C)Cc3ccco3)cc21` (stereo not given), the RP-LC retention time worked out at 929 s.
In the case of `CN1c2cc(F)ccc2C(=O)NC12CCN(C(=O)Cc1ccccc1)CC2`, the RP-LC retention time is 779 s.
To `CCOc1cc(C(=O)Nc2nc(-c3ccc(OC)cc3)c(C)s2)cc(OCC)c1OCC` belongs 1360 s; to `COc1ccc(OC)c(S(=O)(=O)N2CCCC(C(=O)NCCc3ccccc3)C2)c1` (stereo not given), 854 s; to `CCOC(=O)C1CCN(C(=O)C(C)n2c(=O)c(C(F)(F)F)nc3ccccc32)CC1` (stereo not given), 921 s.
On to `CN(C)CCNC(=O)C1CCN(c2cnc(N3CCSCC3)nc2)CC1`, for which the RP-LC retention time turned out to be 580 s.
Regarding `Cc1ccc(NS(=O)(=O)c2ccc3c(c2)C(=O)N(C)c2ncccc2O3)c(F)c1`, the RP-LC retention time was 910 s.
In turn, `O=c1n(CCOc2ccccc2)nc2ccc(S(=O)(=O)N3CCCCC3)cn12` returned an RP-LC retention time of 922 s.
The result for `Cc1nc2cc(NC(=O)c3ccc(N4CCOCC4)nn3)ccc2s1` reads 676 s; that for `COc1ccc(Cl)cc1N1CC(c2nc(-c3cc(OC)c(OC)c(OC)c3)no2)CC1=O` (stereo not given), 905 s; that for `O=C(NCc1ccc(F)cc1Cl)c1ccc2c(c1)ncn2CCN1CCCC1`, 598 s.
The result for `Fc1ccc(Cn2cc(-c3noc(-c4cccc(F)c4)n3)nn2)cc1` reads 1010 s; that for `Cc1cc2[nH]c(C(=O)NC(C)c3cccnc3)c(CN3CCCCC3)c2s1` (stereo not given), 587 s.
